Test results as given in patent US10718760B2, “Method for drug binding analysis in a tissue sample” (Treat4Life AB, priority 2015, dated 2020).

Molecular target: BRAF target protein with V600E mutation (Homo sapiens, UniProt P15056, V600E)
Test: MALDI-MSI displacement competitive binding on malignant melanoma tissue sections
Details: for Isotope Signal: 1 hour, MS/MS m/z 389.1
Experimental: (1) Making 10 micrometer sectioning of the frozen Human Malignant Melanoma tissues performed at −20° C. Thereafter, (2) sample preparation was preformed by slowly thawing and drying the tumor sections at room temperature. Then, the sections were immersed into methanol for 5 min and dried at room temperature. Correspondingly, frozen Human healthy tissue resected from lymphoid nodes were handled in the same way, and used as negative controls. (3) Drug incubation was performed for one hour by using unlabeled ligand, here Vemurafenib, at a concentration of 100 nM (nanomolar) to determine the binding of the ligand molecule to its protein target. […] During titration experiments, the concentration of stable isotope labeled Vemurafenib was 100 nM, 1 μM, 10 μM and 100 μM, (micro Molar), respectively. (4) After incubation, the sections were washed by PBS 3 times and then followed by washing with MilliQ water 3 consecutive times, and (5) mass spectra were obtained using a MALDI LTQ-Orbitrap XL instrument (Thermo Scientific, Germany), and compound signals were obtained by the orbitrap and ion trap. Image analysis was conducted using ImageQuest (Thermo Scientific, Germany). For histological analysis, both H&E staining and immuno-histochemical analysis using monoclonal antibody against BRAF V600E were conducted.
The frozen Human Malignant Melanoma tissues were resected from lymphoid nodes, constituting the tumor tissue. The tissue sections were sections with 10 μm (micro meter) slices thick by the use of a cryostat, performed at −20° C. After sectioning, the slices were slowly thawed and dried at room temperature. Then, the sections were immersed into methanol for 5 min and dried at room temperature. Correspondingly, frozen Human healthy tissue resected from lymphoid nodes was used as negative controls.
Incubation was made for one hour by using unlabeled Vemurafenib at a concentration of 100 nM (nanomolar) to determine the binding of the drug molecule to its protein target. […] The incubation time during competitive binding was 1 hour. […] During titration experiments, the concentration of stable isotope labeled Vemurafenib was 100 nM, 1 μM, 10 μM and 100 μM, (micro Molar), respectively.
After incubation, the sections were washed by PBS 3 times and then followed by washing with MilliQ water 3 consecutive times.
The mass spectra were obtained using a MALDI LTQ-Orbitrap XL instrument (Thermo Scientific, Germany). The compound signals were obtained by the orbitrap and ion trap. Image analysis was conducted using ImageQuest (Thermo Scientific, Germany). For histological analysis, both H&E staining and immuno-histochemical analysis using monoclonal antibody against BRAF V600E were conducted.
Binding intensity was calculated by identifying the area of biding from the mass spec image and the intensity read is calculated by the ImageQuest software of the instrument from the signal and background data.

Sequence of BRAF target protein with V600E mutation (P15056 whole entry V600E): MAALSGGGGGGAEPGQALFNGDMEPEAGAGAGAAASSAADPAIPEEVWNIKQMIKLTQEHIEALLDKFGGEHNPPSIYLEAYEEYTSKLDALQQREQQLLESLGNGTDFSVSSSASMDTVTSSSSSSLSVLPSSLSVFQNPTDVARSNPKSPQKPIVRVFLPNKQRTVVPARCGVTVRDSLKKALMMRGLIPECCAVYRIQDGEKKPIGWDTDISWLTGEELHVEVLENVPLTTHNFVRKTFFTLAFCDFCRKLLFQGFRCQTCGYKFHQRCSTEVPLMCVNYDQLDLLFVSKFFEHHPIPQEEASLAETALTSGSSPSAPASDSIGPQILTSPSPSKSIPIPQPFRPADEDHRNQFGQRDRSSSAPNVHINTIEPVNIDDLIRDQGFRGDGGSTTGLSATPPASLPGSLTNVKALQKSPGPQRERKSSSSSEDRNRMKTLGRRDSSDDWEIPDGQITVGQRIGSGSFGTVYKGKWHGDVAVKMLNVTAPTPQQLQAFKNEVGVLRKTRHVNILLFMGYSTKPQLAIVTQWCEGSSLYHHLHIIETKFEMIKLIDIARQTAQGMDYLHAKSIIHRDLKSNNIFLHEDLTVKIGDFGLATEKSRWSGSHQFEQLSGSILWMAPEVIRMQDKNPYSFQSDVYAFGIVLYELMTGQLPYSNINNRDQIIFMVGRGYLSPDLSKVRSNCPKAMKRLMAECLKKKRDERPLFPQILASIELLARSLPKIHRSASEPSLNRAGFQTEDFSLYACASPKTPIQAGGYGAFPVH

^13C-Vemurafenib
Isotope Signal (0.1 μM ^13C-Vemurafenib co-incubated with 100 nM Vemurafenib): 326
Competition with 100 nM Vemurafenib (1 μM ^13C-Vemurafenib co-administered, m/z 389.1, V600E patient tissue): outcompeting the 100 nM Vemurafenib
Isotope Signal (1 μM ^13C-Vemurafenib co-incubated with 100 nM Vemurafenib): 3233
Isotope Signal (10 μM ^13C-Vemurafenib co-incubated with 100 nM Vemurafenib): 29870
Isotope Signal (100 μM ^13C-Vemurafenib co-incubated with 100 nM Vemurafenib): 259400
